Values after ≈ are worked out from the molar mass of the structure shown. Read-outs that look alike come from different tables or passages of the source.
Legend:
[1] = system: Enterobacter cloacae HDBECL 30030; assay: Minimum inhibitory concentration (broth microdilution, CLSI); assay type: cell-based; details: HDBECL30030
Experimental: (§1) 103 bacterial strains used for the minimum inhibitory concentration test were frozen in a −80° C. ULT freezer and thawed 2 days before use. A small amount of frozen microorganism bacteria were scraped using a sterile inoculating loop, streaked onto a suitable solid culture dish for inoculation, and then cultured for about 20 h at 35 t 2° C. in a normal incubator. • Proteus mirabilis HDBPM 40: MA, normal atmospheric environment • The remaining 102 strains of bacteria: TSA, normal atmospheric environment
(§2) 5-10 colonies with similar morphology were picked from the culture dish using a sterile inoculating loop and then re-streaked onto a corresponding solid culture dish. Then the dish was incubated in a normal incubator at 35 t 2° C. for about 20 h.
(§3) 5-10 single microbial colonies were picked from the solid culture dish, resuspended in 500 μL of sterile normal saline (0.9% NaCl), and adjusted to an OD600 of about 0.15 with a spectrophotometer.
(§4) The bacteria were then diluted 300-fold with 1.02×CAMHB to an inoculation concentration of 2×10^5 CFU/mL.
(§5) • There were a total of 3 assay plate patterns, one of which was used for each assay. • 8 rows of the assay plate (rows A-H) were for 8 test compounds, respectively. The highest test concentration of the compounds was 16, 32 or 64 μg/mL, and each compound was diluted 2-fold. • Growth control (GC): a medium containing microbial inoculum (1.02×CAMHB) and dimethylsulfoxide (DMSO) but no compound.
(§6) The test and reference compounds were dissolved in DMSO or H2O to prepare 6.4 mg/mL stock solutions. The stock solutions were diluted to prepare standby solutions with certain concentrations, and the volumes of the standby solutions were determined according to the experimental design. Corresponding volumes of the standby solutions were transferred to the starting wells of a dilution plate (A1-H1), and half the starting-well volume of DMSO to the other wells. Each compound was diluted 2-fold sequentially from column 1 to column 11 (e.g., transferring 30 μL of DMSO to columns 2-12 first, then pipetting 30 μL of the compounds from column 1 to column 2 and mixing them well, then pipetting 30 μL of the compounds from column 2 to column 3 and mixing them well, then pipetting 30 μL of the compounds from column 3 to column 4 and mixing them well, and so on to column 11).
(§7) 1 or 2 μL of the compounds and DMSO were transferred from the compound plate to corresponding wells of the assay plates.
(§8) 98 μL of corresponding bacterial inocula were added to the assay plates.
(§9) After addition, the assay plates were covered with sterile covers. The mixtures in the assay plates were centrifuged in a centrifuge at 800 rpm for 30 s, mixed well on a microplate shaker at 400 rpm for 1 min, and incubated in a normal incubator at 35 t 2° C. for 20-24 h.
(§10) The assay plates were placed on a plate reading device, and the speculum was adjusted to observe and record the growth condition of bacteria in each well. In the mean time, each assay plate was photographed with QCount system.
(§11) The minimum inhibitory concentration of each compound was recorded by reference to guidelines from the Clinical and Laboratory Standards Institute.
(§12) The minimum inhibitory concentrations of the compounds against experimental strains were tested in this study by reference to the medium microdilution method as indicated by the Clinical and Laboratory Standards Institute. Compounds were diluted two-fold in 96-well plates from the highest detection concentration of 16, 32 or 64 μg/mL. The bacterial inocula in the assay plates were thawed from corresponding medium plates and diluted in 1.02×CAMHB, while growth controls (GC wells) were set up in the assay plates. The minimum inhibitory concentration of each compound against different bacteria was observed and recorded after the assay plates were incubated in a normal incubator at 35 t 2° C. for about 20 h. The minimum inhibitory concentration values for the different compounds are listed in the list below.

[2] = system: Escherichia coli HDBEC 30008; assay: as above; assay type: cell-based; details: HDBEC30008
Experimental: as §1, §2, §3, §4, §5, §6, §7, §8, §9, §10, §11, §12

[3] = system: Escherichia coli HDBEC 30016; assay: as above; assay type: cell-based; details: HDBEC30016
Experimental: as §1, §2, §3, §4, §5, §6, §7, §8, §9, §10, §11, §12

[4] = system: Escherichia coli HDBEC 30048; assay: as above; assay type: cell-based; details: HDBEC30048
Experimental: as §1, §2, §3, §4, §5, §6, §7, §8, §9, §10, §11, §12

[5] = system: Klebsiella pneumoniae HDBKP 30006; assay: as above; assay type: cell-based; details: HDBKP30006
Experimental: as §1, §2, §3, §4, §5, §6, §7, §8, §9, §10, §11, §12

[6] = system: Klebsiella pneumoniae HDBKP 9153; assay: as above; assay type: cell-based; details: HDBKP9153
Experimental: as §1, §2, §3, §4, §5, §6, §7, §8, §9, §10, §11, §12

[7] = system: Klebsiella pneumoniae HDBKP 9249; assay: as above; assay type: cell-based; details: HDBKP9249
Experimental: as §1, §2, §3, §4, §5, §6, §7, §8, §9, §10, §11, §12

[8] = system: Proteus mirabilis HDBPM 40; assay: as above; assay type: cell-based; details: HDBPM40
Experimental: as §1, §2, §3, §4, §5, §6, §7, §8, §9, §10, §11, §12

[9] = system: Pseudomonas aeruginosa HDBPA 5679; assay: as above; assay type: cell-based; details: HDBPA5679
Experimental: as §1, §2, §3, §4, §5, §6, §7, §8, §9, §10, §11, §12

[10] = system: metallo-β-lactamase-expressing Acinetobacter baumannii strain ABA-0003YK; assay: as above; assay type: cell-based; details: read-out: MIC A. baumannii ABA-0003YK
Experimental: as §1, §2, §3, §4, §5, §6, §7, §8, §9, §10, §11, §12

[11] = Pharmacokinetic evaluation of compounds in mice (tail vein injection); assay type: in vivo, Male CD-1 (ICR) mice; details: CD-1 (ICR), mouse, male CD-1 mice, intravenous injection, plasma; for half-life: read-out: T½ (converted); for Vd: read-out: Vss
Experimental: Male CD-1 (ICR) mice were purchased and then acclimatized in this laboratory for at least 3 days. […] Blood samples were collected from the saphenous vein at 0.0833 h, 0.25 h, 0.5 h, 1 h, 2 h, 4 h, 8 h and 24 h following the tail vein injection administration. The volume of blood collection at each time point of the blood collection was about 30 μL. The blood samples were placed in centrifuge tubes containing anticoagulant EDTA-K2 and centrifuged at 3,200 g at 4° C. for 10 min, and then the upper plasma samples were collected and preserved in a freezer at −70±10° C. for later tests.
1) To 1.5 mL centrifuge tubes were added a 6 μL aliquot of an unknown sample, a standard curve, a quality control, a dilution quality control, single blank and double blank samples.
2) Each sample (except for the double blank sample) was treated with 120 μL of IS1-containing precipitant (the double blank sample was treated with 120 μL of pure MeOH for precipitation), and the mixtures were well mixed (for at least 15 s) using a vortexer and centrifuged at 12,000 g at 4° C. for 15 min.
3) 60 μL of the supernatants were transferred to a 96-well plate and centrifuged at 4° C. at 3220 g for 5 min, and 6 p L of the supernatants were injected for LC-MS/MS quantitative analysis.
1) The 1 h-plasma samples from the 3 mice were diluted 10-fold: 2 p L of the samples were added to 18 p L of blank matrix.
2) The 0.0833 h to 0.5 h-plasma samples from the 3 mice were diluted 100-fold: 18 μL of blank matrix was added to 2 p L of the samples to obtain 10-fold diluted samples. 2 μL of the 10-fold diluted samples were added to 18 p L of blank matrix to obtain 100-fold diluted analysis samples.
LC-MS/MS analysis conditions: chromatography column: ACQUITY UPLC HSS T3 (2.1×50 mm, 1.8 μm); column temperature: 50° C.; mobile phase A: a 0.1% aqueous solution of formic acid; mobile phase B: a 0.1% solution of formic acid in acetonitrile; flowrate: 0.65 mL/min. Internal standard: verapamil (100 ng/mL)
The concentration of the compounds in plasma was measured by LC-MS/MS (LC-MS/MS-AK_Q-Trap 6500). The pharmacokinetic software WinNonlin [version: Phoenix™ WinNonlin®6.3, manufacturer: Pharsight Corporation] was used to calculate pharmacokinetic parameters (V-Noncompartmental model 201).

| SMILES | MIC [1] [µg/mL] | MIC [2] [µg/mL] | MIC [3] [µg/mL] | MIC [4] [µg/mL] | MIC [5] [µg/mL] | MIC [6] [µg/mL] | MIC [7] [µg/mL] | MIC [8] [µg/mL] | MIC [9] [µg/mL] | MIC [10] [µg/mL] | AUC ([11]; dose 10 mg/kg) [ng·h/mL] | clearance ([11]; dose 10 mg/kg) [mL/min/kg] | half-life ([11]; dose 10 mg/kg) [min] | Vd ([11]; dose 10 mg/kg) [L/kg] | AUC ([11]; dose 5 mg/kg) [ng·h/mL] | clearance ([11]; dose 5 mg/kg) [mL/min/kg] | half-life ([11]; dose 5 mg/kg) [min] | Vd ([11]; dose 5 mg/kg) [L/kg] |
| --- | --- | --- | --- | --- | --- | --- | --- | --- | --- | --- | --- | --- | --- | --- | --- | --- | --- | --- |
| C[n+]1cc(-c2ncc(C(=O)NC[C@@H]3[C@H](NC(=O)/C(=N\OC(C)(C)C(=O)O)c4csc(N)n4)C(=O)N3S(=O)(=O)O)s2)cn1CCCNC(=O)c1ccc(O)c(O)c1Cl [Compound I-33] | < 4 | < 4 | < 4 | < 4 | 8 to 16 | < 4 | 4 to 8 | < 4 | < 4 | < 4 | – | – | – | – | – | – | – | – |
| Cc1c(O)c(=O)cc(C(=O)N2CC[C@@H](c3cc(C(=O)NC[C@@H]4[C@H](NC(=O)/C(=N\OC(C)(C)C(=O)O)c5csc(N)n5)C(=O)N4S(=O)(=O)O)on3)C2)n1O [Compound I-43] | < 4 | < 4 | < 4 | < 4 | 8 to 16 (≈ 10.2 to 20.5 µM) | < 4 | 8 to 16 (≈ 10.2 to 20.5 µM) | < 4 | < 4 | – | 9660 | 17.3 | 35.4 | 0.24 | – | – | – | – |
| C[n+]1cc(-c2ncc(C(=O)NC[C@@H]3[C@H](NC(=O)/C(=N\OC4(C(=O)O)CC4)c4csc(N)n4)C(=O)N3S(=O)(=O)O)s2)cn1CCCNC(=O)c1ccc(O)c(O)c1Cl [Compound I-28] | < 4 | < 4 | < 4 | < 4 | 4 to 8 | < 4 | < 4 | < 4 | < 4 | < 4 | – | – | – | – | – | – | – | – |
| CC(C)(O/N=C(\C(=O)N[C@@H]1C(=O)N(S(=O)(=O)O)[C@@H]1CNC(=O)c1cc([C@@H]2CCN(C(=O)c3ccc(O)c(O)c3Cl)C2)no1)c1csc(N)n1)C(=O)O [Compound I-27] | < 4 | < 4 | < 4 | < 4 | 4 to 8 (≈ 5.09 to 10.2 µM) | < 4 | 4 to 8 (≈ 5.09 to 10.2 µM) | < 4 | < 4 | < 4 | – | – | – | – | – | – | – | – |
| Cc1c(C(=O)N2CC[C@@H](c3cc(C(=O)NC[C@@H]4[C@H](NC(=O)/C(=N\OC(C)(C)C(=O)O)c5csc(N)n5)C(=O)N4S(=O)(=O)O)on3)C2)n(O)c(C)c(O)c1=O [Compound I-44] | < 4 | < 4 | 4 to 8 (≈ 5.03 to 10.1 µM) | < 4 | 8 to 16 (≈ 10.1 to 20.1 µM) | < 4 | 8 to 16 (≈ 10.1 to 20.1 µM) | < 4 | < 4 | – | 17300 | 9.61 | 37.8 | 0.19 | – | – | – | – |
| CC(C)(O/N=C(\C(=O)N[C@@H]1C(=O)N(S(=O)(=O)O)[C@@H]1CNC(=O)c1cc([C@@H]2CCN(C(=O)c3cc(=O)c(O)cn3O)C2)no1)c1csc(N)n1)C(=O)O [Compound I-7] | < 4 | < 4 | 4 to 8 (≈ 5.21 to 10.4 µM) | < 4 | > 16 | < 4 | > 16 | < 4 | < 4 | < 4 | – | – | – | – | 4240 | 19.6 | 16.2 | 0.48 |
| CC(C)(O/N=C(\C(=O)N[C@@H]1C(=O)N(S(=O)(=O)O)[C@@H]1CNC(=O)c1cc(C2CC[N+](C)(CCNC(=O)c3ccc(O)c(O)c3Cl)C2)no1)c1csc(N)n1)C(=O)O (some centres unmarked) [Compound I-32] | < 4 | < 4 | 4 to 8 | < 4 | 8 to 16 | < 4 | < 4 | < 4 | < 4 | < 4 | – | – | – | – | – | – | – | – |
| CC(C)(O/N=C(\C(=O)N[C@@H]1C(=O)N(S(=O)(=O)O)[C@@H]1CNC(=O)c1cc([C@@H]2CCN(CCNC(=O)c3ccc(O)c(O)c3Cl)C2)no1)c1csc(N)n1)C(=O)O [Compound I-35] | < 4 | < 4 | < 4 | < 4 | < 4 | < 4 | 4 to 8 (≈ 4.83 to 9.66 µM) | < 4 | < 4 | – | 8530 | 19.5 | 85.8 | 0.57 | – | – | – | – |
| C[C@H]1[C@H](NC(=O)/C(=N\OC(C)(C)C(=O)O)c2csc(N)n2)C(=O)N1S(=O)(=O)O [Aztreonam, reference compound] | > 16 | 8 to 16 (≈ 18.4 to 36.7 µM) | > 16 | > 16 | > 16 | > 16 | > 16 | 8 to 16 (≈ 18.4 to 36.7 µM) | > 16 | > 16 | – | – | – | – | – | – | – | – |
| CC(C)(O/N=C(\C(=O)N[C@@H]1C(=O)N(S(=O)(=O)O)[C@@H]1CNC(=O)c1cnc([C@@H]2CCN(C(=O)c3ccc(O)c(O)c3Cl)C2)s1)c1csc(N)n1)C(=O)O [Compound I-30] | < 4 | < 4 | < 4 | < 4 | 4 to 8 (≈ 4.99 to 9.98 µM) | < 4 | 4 to 8 (≈ 4.99 to 9.98 µM) | < 4 | < 4 | < 4 | – | – | – | – | – | – | – | – |
